From US10472341B2, “Bicyclic tetrahydrothiazepine derivatives useful for the treatment of neoplastic and/or infectious diseases” (APEIRON BIOLOGICS AG, priority 2015, dated 2019) come the findings set out here.

Molecules are shown by their SMILES.

In one assay the test system is CD4 T cells. Put plainly: CD69 expression on aCD3/aCD28 stimulated isolated human CD4 T cells (flow cytometry). Type of assay: cell-based. The following applies: 24 h after TCR stimulation, read-out: Activity Class CD69 (CD4). The method in brief:
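Isolated CD4 and CD8 T cells plated at 80000 cells per well in Xvivo medium and stimulated with anti-CD3/28 mAbs in presence of compound. CD69 expression measured by flow cytometry 24 h after TCR stimulation.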
(In general: A flow cytometer gives signals particle by particle.)

Another assay deals with CD8 T cells. Put plainly: CD8 T cell viability (number of living cells) with or without M21 cells. The assay is classed as cell-based, human. The protocol:
Isolated PBMCs, NK cells or CD8 positive cells were plated in Xvivo medium at 1.5*10^5 cells per in 96 well culture plates in the presence of 0.3*10^4 tumor cells where indicated. Cytokine secretion was determined by ELISA, immune cell activation (using Beckman-Coulter Abs CD25-PC5, CD69-PC7), cell viability and numbers by flow cytometry (Beckman-Coulter FC500 or Gallios) using 7-AAD exclusion as criterion for living cells. CD8-positive immune cells were isolated from PBMCs and were incubated with and without compound example 67, either alone or in co-culture with M21 melanoma cells.

The subject of the next assay is Monocytes. Kind of assay: FC receptor stimulation on myeloid cells (monocytes, precoated anti-GD2-Abs): TNF-alpha, IL-1, IL-6. The assay is classed as cell-based, human. As for the experimental part:
Isolated Monocytes were plated in Xvivo medium at 1.5*10^5 cells per in 96 well culture plates and stimulated by precoated anti-GD2-Abs (10 μg/ml, Apeiron) where indicated. Cytokine secretion was determined by enzyme-linked immunosorbent assay (ELISA). The results of the above experiment titled “Enhancement of reactivity of immune cells to stimulation by tumor-cell bound therapeutic antibody” indicate that compounds can enhance FcR stimulation of immune cells. However, in a set-up as used therein, it is difficult to subtract the effects of tumor-cell contact from the effects of Fc-receptor stimulation. Therefore, the effect of FcR-stimulation by the same anti-GD2-Ab was tested in a tumor-cell free assay set-up, where the anti-GD2 antibodies were coated to cell culture plates, thereby mimicking cell-bound antibodies.

Take `Cl.N[C@H]1CS(=O)(=O)c2cc(F)c(C(=O)NCCCC(F)(F)F)cc2N(Cc2ccc(Cl)cc2)C1=O` [Example 70, (3R)-3-amino-5-[(4-chlorophenyl)methyl]-8-fluoro-1,1,4-trioxo-N-(4,4,4-trifluoro-butyl)-2,3,4,5-tetrahydro-1λ^6,5-benzothiazepine-7-carboxamide hydrochloride]: the EC50 in the assay on CD4 T cells was below 1.58 µM.

In the case of `CCCCNC(=O)c1ccc2c(c1)N(Cc1ccc(OC(F)(F)F)cc1)C(=O)[C@@H](N)CS2(=O)=O.Cl` [Example 67, (3R)-3-amino-N-butyl-1,1,4-trioxo-5-{[4-(trifluoromethoxy)phenyl]methyl}-2,3,4,5-tetrahydro-1λ^6,5-benzothiazepine-7-carboxamide hydrochloride], the “CD8 T cell viability [Number of Living Cells] average” value in the assay on CD8 T cells (0.03 μM, CD8 cells & M21) is listed as 22933.00 Number of Living Cells; in the assay on CD8 T cells (0.03 μM, CD8 only) it was 23523.00 Number of Living Cells; in the assay with CD8 T cells (0.1 μM, CD8 cells & M21), 23942.33 Number of Living Cells; with CD8 T cells (0.1 μM, CD8 only), 24094.33 Number of Living Cells; in the assay with CD8 T cells (0.3 μM, CD8 cells & M21) it was 23944.67 Number of Living Cells; with CD8 T cells (0.3 μM, CD8 only) it was 23739.00 Number of Living Cells. For the same compound, the “CD8 T cell viability [Number of Living Cells] average” value is reported as 24569.67 Number of Living Cells with CD8 T cells (1 μM, CD8 cells & M21); 23066.67 Number of Living Cells in the assay on CD8 T cells (1 μM, CD8 only); 24633.67 Number of Living Cells in the assay on CD8 T cells (3 μM, CD8 cells & M21); 23975.33 Number of Living Cells with CD8 T cells (3 μM, CD8 only); 24006.33 Number of Living Cells with CD8 T cells (10 μM, CD8 cells & M21); 25522.67 Number of Living Cells with CD8 T cells (10 μM, CD8 only). The “number of CD8 T cells; number of tumor cells in the absence of CD8 T cells” value in the assay with CD8 T cells (CD8 / M21 cultures) is on record as “neither the number of CD8 T cells nor the number of tumor cells in the absence of CD8 T cells was substantially modulated”.

Turning to `CC(C)NC(=O)c1cc2c(cc1F)S(=O)(=O)C[C@H](N)C(=O)N2Cc1ccc(Cl)cc1.Cl` [Example 77, (3R)-3-amino-5-[(4-chlorophenyl)methyl]-8-fluoro-1,1,4-trioxo-N-(propan-2-yl)-2,3,4,5-tetrahydro-1λ^6,5-benzothiazepine-7-carboxamide hydrochloride], the IL-1 in the assay on Monocytes (FcR stimulated, 0.01 μM) stood at 1.14 ng/mL; with Monocytes (FcR stimulated, 0.03 μM), 1.52 ng/mL; with Monocytes (FcR stimulated, 0.1 μM), 1.09 ng/mL; in the assay on Monocytes (FcR stimulated, 0.3 μM) it was 4.16 ng/mL; in the assay on Monocytes (FcR stimulated, 1 μM) it was 5.88 ng/mL; in the assay with Monocytes (FcR stimulated, 3 μM) it was 5.50 ng/mL. The IL-1 with Monocytes (FcR stimulated, 10 μM) amounted to 7.44 ng/mL; in the assay on Monocytes (FcR stimulated, 30 μM), 7.77 ng/mL. In addition, the IL-6 in the assay on Monocytes (FcR stimulated, 0.01 μM) was found to be 1.61 ng/mL; in the assay on Monocytes (FcR stimulated, 0.03 μM), 2.33 ng/mL; in the assay on Monocytes (FcR stimulated, 0.1 μM), 2.10 ng/mL; in the assay with Monocytes (FcR stimulated, 0.3 μM) it was 5.65 ng/mL; with Monocytes (FcR stimulated, 1 μM), 7.46 ng/mL; with Monocytes (FcR stimulated, 3 μM) it was 5.93 ng/mL. Further, the IL-6 in the assay with Monocytes (FcR stimulated, 10 μM) stood at 5.86 ng/mL; with Monocytes (FcR stimulated, 30 μM) it was 6.20 ng/mL; in the assay on Monocytes (unstimulated, 0.1 μM), 0.14 ng/mL; with Monocytes (unstimulated, 0.3 μM) it was 0.13 ng/mL; in the assay on Monocytes (unstimulated, 1 μM), 0.14 ng/mL; in the assay with Monocytes (unstimulated, 3 μM) it was 0.13 ng/mL. Besides, the IL-6 is 0.13 ng/mL in the assay with Monocytes (unstimulated, 10 μM) and 0.13 ng/mL with Monocytes (unstimulated, 30 μM). Moreover, the TNF-alpha was found to be 1.62 ng/mL in the assay on Monocytes (FcR stimulated, 0.01 μM); 2.49 ng/mL in the assay with Monocytes (FcR stimulated, 0.03 μM); 2.57 ng/mL with Monocytes (FcR stimulated, 0.1 μM); 6.57 ng/mL with Monocytes (FcR stimulated, 0.3 μM); 11.02 ng/mL in the assay on Monocytes (FcR stimulated, 1 μM); 14.11 ng/mL with Monocytes (FcR stimulated, 3 μM). Besides, the TNF-alpha in the assay with Monocytes (FcR stimulated, 10 μM) came to 16.44 ng/mL; with Monocytes (FcR stimulated, 30 μM), 14.85 ng/mL; in the assay on Monocytes (unstimulated, 30 μM) it was 0.02 ng/mL. In addition, in the assay with Monocytes (monocytes, plate-coated anti-GD2 antibodies), the “activation of myeloid cells by FcR stimulation (TNF-alpha, IL-1, IL-6 secretion)” value was “directly enhanced the activation of myeloid cells by FcR stimulation, which resulted in increased secretion of TNF-alpha, IL-1 and IL-6”.
